How the values were obtained:
viral polymerase = viral polymerase (Human herpesvirus 1, UniProt P04293); conditions: cited from earlier work
[1] = system: recurrent erythema multiforme; conditions: continuous acyclovir therapy; double-blind trial in 1995 (Tatnall); cited from earlier work
[2] = system: Herpes simplex virus (HSV); assay: Clinical cases of QTT-positive HSV-associated dermatitis treated with antiviral agent; assay type: in vivo, human
Excerpt: Step 100: Checking a potential disease (D) relates to a dermatosis or a non-skin disease. For example, some questions are given for the patient and the skin of the patient is checked by an experienced inspector or a medical staff to determine if a potential disease (D) had by the patent relates to a dermatosis or a non-skin disease. If the potential disease (D) relates to a dermatosis, the inspector or the medical staff will take some tissue samples from an affected part of a patient's skin, as illustrated in step 101, and the test in step 102 for testing the tissue samples from the patient's skin will continue. If the disease (D) relates to a non-skin disease, the inspector or the medical staff takes a tissue sample from a specific part, such as peripheral blood, skin, bone marrow, mucosa, saliva, cerebrospinal fluid, amniotic fluid, brain tissue, tears or skin secretions, of the patient, as illustrated in step 103, based on the method for testing the tissue sample in step 104, and then the test in step 104 for testing the tissue samples from the specific part of the patient will continue.
(§1) Step 102: Performing a Quick Tzanck Test (QTT) process. The QTT process can be applied to the tissue samples from the patient's skin so as to reveal some histopathological changes from the QTT sample, i.e. the tissue samples from the patient's skin, by using a microscope. The inspector or the medical staff can observe the histopathological changes to diagnose HSV infection.
Step 106: Treating an anti-HSV treatment of, for example, prescribing an anti-HSV medicine or an anti-HSV cream for the patient. The patient may take the anti-HSV medicine to cure the HSV infection. Alternatively, the patient may apply the anti-HSV cream onto the affected part of the patient's skin.
(§2) 1. Adult: Valacyclovir (500 mg) • a. 2 tablets daily (i.e. 1 tablet after breakfast and dinner) for 5-7 days. • b. 3 tablets daily (i.e. every 8 hours) for severe cases in the beginning only.

[3] = system: Herpes simplex virus (HSV); assay: Clinical cases of chilblain induced by HSV infection; assay type: in vivo, human; conditions: for clinical outcome, red swollen fingers with pain: 2nd case of chilblain
Excerpt: as §1
(§3) Step 104: Performing an antibody testing or a PCR techniques on the tissue sample from the specific part of the patient. The antibody testing, such as the HSV IgG testing, the cytomegalovirus immunoglobulin G (CMV IgG) testing or the non-specific immunoglobulin E (IgE) testing is adapted to be performed on a peripheral blood, acting as the tissue sample, of the patient. The PCR testing is adapted to be performed on peripheral blood, skin, bone marrow, mucosa, saliva, cerebrospinal fluid, amniotic fluid, brain tissue, tears or skin secretions, acting as the tissue sample, of the patient. The antibody testing or PCR techniques may be referred to the description in the section of “Diagnosis of HSV Infection”. The normal titer for CMV IgG/HSV IgG is less than 2 and the normal titer for non-specific IgE is less than 170 IU/ml. When the tissue sample from peripheral blood of the patient has a titer for CMV IgG/HSV IgG greater than 2, the process of “anti-HSV treatments” in step 106 is then carried out. Otherwise, the step 108 of “other treatments” is carried out. Alternatively, when the result of detecting the tissue sample via the PCR techniques is positive, the process of “anti-HSV treatments” in step 106 is then carried out; when the result of detecting the tissue sample via the PCR techniques is negative, the step 108 of “other treatments” is carried out.
as §2

[4] = system: Herpes simplex virus (HSV); assay: Clinical cases of diabetic skin complications (psoriasiform plaques induced by HSV infection); assay type: in vivo, human; conditions: Acyclovir (400 mg) 3 tablets daily for 10 days then 2 tablets daily for 10 days + NBUVB + Gr. I and III topical CS; 7 days afterwards
Excerpt: as §3
1. […]

[5] = system: Herpes simplex virus (HSV); assay: Clinical cases of alopecia due to HSV infection; assay type: in vivo, human
viral thymidine kinase = viral thymidine kinase (Human herpesvirus 1, UniProt P0DTH5); conditions: conversion into acyclo-guanosine monophosphate; cited from earlier work
[6] = system: Herpes simplex virus (HSV); assay: Clinical cases of impetigo induced by HSV infection; assay type: in vivo, human; conditions: for clinical outcome, skin lesions: Acyclovir G. 10 mg/kg 4 times a day for 7 days + anti-allergic agents
Protocol: The QTT process can be applied to the tissue samples from the patient's skin so as to reveal some histopathological changes from the QTT sample, i.e. the tissue samples from the patient's skin, by using a microscope. The inspector or the medical staff can observe the histopathological changes to diagnose HSV infection.
as §2

[7] = system: Herpes simplex virus (HSV); assay: Clinical cases of pyoderma gangrenosum induced by HSV infection; assay type: in vivo, human
[8] = system: Herpes simplex virus (HSV); assay: Clinical cases of acne induced by HSV infection; assay type: in vivo, human; conditions: for clinical outcome, symptoms: 7 days later
Protocol: as §1, §2
Consequently, the treatment in the present invention of acne may comprise a cream or an ointment mixed by an Anti-HSV agent to put on the affected part of the patient, wherein the Anti-HSV agent comprises Valacyclovir or Acyclovir. For example, the ADO ointment used in this invention contains acyclovir, lidocaine and diclofenac.

[9] = CASE 7, with anti-allergic agent and antibiotic ointment, 9 days later

Sequence of viral polymerase (P04293 whole entry): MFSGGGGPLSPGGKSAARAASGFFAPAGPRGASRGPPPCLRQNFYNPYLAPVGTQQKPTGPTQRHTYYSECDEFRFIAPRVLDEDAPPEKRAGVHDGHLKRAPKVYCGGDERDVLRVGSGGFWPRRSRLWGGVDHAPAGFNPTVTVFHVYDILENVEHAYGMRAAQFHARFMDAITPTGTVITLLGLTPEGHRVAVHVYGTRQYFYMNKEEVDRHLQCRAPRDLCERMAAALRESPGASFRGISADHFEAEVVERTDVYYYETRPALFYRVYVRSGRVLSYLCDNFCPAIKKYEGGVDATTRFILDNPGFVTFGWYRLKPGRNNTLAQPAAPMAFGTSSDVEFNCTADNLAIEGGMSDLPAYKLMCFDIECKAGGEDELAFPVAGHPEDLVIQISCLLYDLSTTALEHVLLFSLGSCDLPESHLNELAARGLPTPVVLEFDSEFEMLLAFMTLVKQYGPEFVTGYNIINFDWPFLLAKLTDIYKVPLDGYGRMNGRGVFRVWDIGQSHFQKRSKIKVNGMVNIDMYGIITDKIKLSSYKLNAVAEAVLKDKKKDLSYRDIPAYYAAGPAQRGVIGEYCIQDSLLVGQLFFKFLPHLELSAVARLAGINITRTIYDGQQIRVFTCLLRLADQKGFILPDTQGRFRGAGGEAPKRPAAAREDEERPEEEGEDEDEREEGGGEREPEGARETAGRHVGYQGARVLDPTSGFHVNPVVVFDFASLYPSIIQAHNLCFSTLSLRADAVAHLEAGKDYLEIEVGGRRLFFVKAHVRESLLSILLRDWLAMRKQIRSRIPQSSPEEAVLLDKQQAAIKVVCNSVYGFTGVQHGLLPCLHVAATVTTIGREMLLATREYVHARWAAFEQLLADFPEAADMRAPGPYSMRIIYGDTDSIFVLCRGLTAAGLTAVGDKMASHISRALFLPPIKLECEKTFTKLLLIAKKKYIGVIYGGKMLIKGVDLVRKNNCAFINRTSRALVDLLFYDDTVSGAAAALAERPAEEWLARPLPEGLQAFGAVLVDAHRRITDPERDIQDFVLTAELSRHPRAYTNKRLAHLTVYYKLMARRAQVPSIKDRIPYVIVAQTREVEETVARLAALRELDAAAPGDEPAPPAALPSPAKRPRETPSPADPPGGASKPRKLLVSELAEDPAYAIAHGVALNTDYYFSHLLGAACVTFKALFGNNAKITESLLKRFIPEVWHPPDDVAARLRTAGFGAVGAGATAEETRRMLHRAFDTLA
Sequence of viral thymidine kinase (P0DTH5 whole entry): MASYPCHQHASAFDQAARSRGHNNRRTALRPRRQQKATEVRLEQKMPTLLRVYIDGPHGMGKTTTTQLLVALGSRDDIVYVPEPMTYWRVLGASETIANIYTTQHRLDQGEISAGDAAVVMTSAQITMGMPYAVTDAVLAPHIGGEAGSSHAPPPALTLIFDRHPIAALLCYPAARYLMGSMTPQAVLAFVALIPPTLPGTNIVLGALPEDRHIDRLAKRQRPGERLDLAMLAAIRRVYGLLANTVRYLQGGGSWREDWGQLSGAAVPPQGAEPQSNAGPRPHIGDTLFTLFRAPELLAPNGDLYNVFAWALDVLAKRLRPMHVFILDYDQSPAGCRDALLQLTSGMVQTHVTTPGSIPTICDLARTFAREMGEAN

For `Nc1nc2c(ncn2COCCOP(=O)(O)OP(=O)(O)OP(=O)(O)O)c(=O)[nH]1` [Acyclo-GTP, acyclo-guanosine triphosphate], the “greater affinity for viral than cellular polymerase” value (viral polymerase) is listed as “approximately 100 times”.

In the case of `Nc1nc(O)c2ncn(COCCO)c2n1` [Acyclovir, 2-Amino-1,9-dihydro-9-((2-hydroxyethoxy)methyl)-6H-purin-6-one], the “suppression of recurrent erythema multiforme” value [1] is given as “completely suppressed”, the “clinical outcome, vesiculopapules and plaques” value ([2]; CASE 6, QTT positive, 2 days later) is given as “nearly no vesiculopapules and plaques over their trunk and upper extremity” and the “clinical outcome, earlier similar eruptions” value ([2]; Case 8, 5-7 days of acyclovir granules, 7 and 9 months ago) is given as “Completely disappearance of similar eruptions”. For the same compound, the “clinical outcome, swelling, pain, erosion” value ([3]; 1st case of chilblain, Acyclovir 200 mg 3 tablets daily for 7 days, 7 days later) was “The swelling and pain decreased a lot. The erosion improved”, the “clinical outcome, psoriasiform plaques” value [4] was “Some lesions disappeared and the scaling of the psoriasiform plaques decreased a lot” and the “clinical outcome, vesicopapules and pustules on back” value ([5]; 1st case of alopecia and acne-like eruption, after the treatment) was “only a few vesicopapules and pustules on their back”. The hair regrowth ([5]; 1st case of alopecia, Acyclovir (400 mg) 3 tablets daily for 10 days and 2 tablets daily for 14 days + anti-allergic agent + Gr. III topical CS, 23 days later) was “Small white hairs appeared especially over central portion”, the “effectiveness of viral thymidine kinase in phosphorylation versus cellular thymidine kinase” value (viral thymidine kinase) was 3000 times and the “clinical outcome, skin lesions” value ([6]; 1st case of impetigo, antibiotics, 9 days later) was “only some erythema on their mandible and some small red erosions over right cheek”. For the same compound, the “clinical outcome, lesion” value ([6]; 2nd case of impetigo, Acyclovir G. 10 mg/kg 4 times a day for 7 days + antibiotics ointment, 3 days later) was “The lesion dried, desquamated and became flat”, the recurrence ([6]; 4th case of impetigo, about one year) was “no recurrence till now” and the “clinical outcome, skin lesions” value ([6]; 5th case of impetigo, Gr. IV topical corticosteroids, antibiotic ointment, 5 days later) was “some small erosions around their month and some vesiculopapules over the erythematosus eyelids”. For the same compound, the recurrence ([6]; 5th case of impetigo, about 14 months) was “no recurrence till now”.

With `CC(C)C(N)C(=O)OCCOCn1cnc2c(=O)nc(N)[nH]c21` (centres unmarked) [Valacyclovir, 2-[(2-amino-6-oxo-6,9-dihydro-3H-purin-9-yl)methoxy]ethyl-2-amino-3-methylbutanoate] the “clinical outcome, erosions and oozing” value ([7]; 1st case of pyoderma gangrenosum, Valacyclovir 3 tablets daily for 10 days + anti-allergic agent, antibiotics ointment, Gr. III topical CS, 10 days later) was “no more erosions and oozing”, the “clinical outcome, vesicles and swelling of forearm” value ([2]; CASE 5, 2 days after Valacyclovir granule) was “Most of the vesicles became crusts and the swelling of their forearm improved a lot” and the “clinical outcome, anterior chest” value [2, 9] was “only few vesiculopapules over their anterior chest”. The “clinical outcome, lower abdomen” value [2, 9] was “nearly no punched out erosions over their lower abdomen”, the recurrence ([2]; Case 9, follow-up after treatment) was “no recurrence for 2 years” and the “clinical outcome, vesicles” value ([2]; Case 9, with anti-allergic agent, 3 days after treatment) was “the roofs of the vesicles detached and became crusted erosions”. The “clinical outcome, skin lesion” value ([2]; Case 9, with anti-allergic agent, 7 days later) was “healed completely”, the “clinical outcome, red swollen fingers with pain” value ([3]; after 2nd prescriptions: Valacyclovir 1 tablets daily for 14 days + anti-allergic agent + ADO ointment 2 time daily) was “improved” and the “clinical outcome, red swollen fingers with pain” value ([3]; after 3rd prescriptions: Valacyclovir 1 tablets daily for 14 days + anti-allergic agent + ADO ointment 2 time daily) was “nearly cured”. For the same compound, the hair regrowth ([5]; 1st case of alopecia, about 7 weeks after they finished Valacyclovir 2 tablets daily for 5 days) was “New hairs including black hairs increased a lot”, the “clinical outcome, pustule” value ([5]; 2nd case of alopecia, Valacyclovir 1 tablets daily for 95 days + anti-allergic agent + Acyclovir ointment for 6 weeks, a week later) was “The pustule disappeared” and the “clinical outcome, atrophic plague” value ([5]; 2nd case of alopecia, same regimen, 2 weeks later) was “nearly no change on the atrophic plague”. For the same compound, the hair regrowth ([5]; 2nd case of alopecia, same regimen, 4 weeks later) was “hair increased obviously on the right side and posterior aspect”, the hair regrowth ([5]; 2nd case of alopecia, same regimen, 16 weeks later) was “New black hairs (circle) were observed and no more alopecia on the right side” and the “clinical outcome, pustules and inflammation” value ([8]; 1st case of acne, Valacyclovir 2 tablets daily for 5 days + Nadifloxacin cream, 5 days later) was “The number of the pustules and the extent of inflammation decreased”. The “clinical outcome, pustules” value ([8]; 2nd case of acne, Valacyclovir 2 tablets daily for 5 days + ADO ointment, 8 days later) was “Nearly no pustules were seen”, the “clinical outcome, inflammation and comedoes” value ([8]; 3rd case of acne, Valacyclovir 2 tablets daily for 5 days per month + ADO ointment, 23 days later) was “The severe inflammation on the nose and over the left cheek decreased a lot” and the “clinical outcome, pustules” value ([8]; 4th case of acne, Valacyclovir 2 tablets daily for 5 days + anti-allergic agent + Gr. IV topical CS, 2 days later) was “Not only the number but also the size of the pustules decreased a lot”. For the same compound, the recurrence ([8]; 4th case of acne, after completed medication, about one year) was “no recurrence till now”, the “clinical outcome, symptoms” value ([8]; 5th case of acne, Valacyclovir 2 tablets daily for 5 days + antibiotics 2 days + Nadifloxacin cream) was “Symptoms have significantly improved” and the “clinical outcome, symptoms” value ([8]; 6th case of acne, Valacyclovir 2 tablets daily for 5 days + Nadifloxacin cream + Gr. IV topical CS) was “Symptoms have significantly improved”. The “clinical outcome, vesicles” value ([6]; 3rd case of impetigo, Valacyclovir 2 tablets daily + anti-allergic agent, 3 days after the treatment) was “the vesicles found over their left neck 6 days ago collapsed” and the “clinical outcome, symptoms” value ([6]; 3rd case of impetigo, Valacyclovir 2 tablets daily for 7 days + anti-allergic agent + antibiotics 2 days, 7 days later) was “Symptoms have significantly improved”.

For `C[C@]12C=CC(=O)C=C1CC[C@@H]1[C@@H]2[C@@H](O)C[C@@]2(C)[C@H]1CC[C@]2(O)C(=O)CO` [prednisolone], the “clinical outcome, symptoms” value ([7]; 2nd case of pyoderma gangrenosum with ulcerative colitis, oral prednisolone 40 mg tapered + gentamycin ointment + mesalazine, no antiviral, 13 days later) was “Symptoms have significantly improved”.
